Data taken from paper PMC11594246, “Nitrilase GiNIT from Gibberella intermedia Efficiently Degrades Nitriles Derived from Rapeseed Meal Glucosinolate” (International Journal of Molecular Sciences, 2024).

What was measured:
rBdNIT = target: T1, rBdNIT (Bradyrhizobium diazoefficiens, UniProt Q89PT3); assay: specific activity, Bertholet ammonia assay; type: biochemical; conditions: 50 mM substrate, pH 7.5, 45 °C
T1 construct: gene blr3397; synthetic gene expressed in E. coli BL21(DE3), purified
T1 sequence (Q89PT3 1-321): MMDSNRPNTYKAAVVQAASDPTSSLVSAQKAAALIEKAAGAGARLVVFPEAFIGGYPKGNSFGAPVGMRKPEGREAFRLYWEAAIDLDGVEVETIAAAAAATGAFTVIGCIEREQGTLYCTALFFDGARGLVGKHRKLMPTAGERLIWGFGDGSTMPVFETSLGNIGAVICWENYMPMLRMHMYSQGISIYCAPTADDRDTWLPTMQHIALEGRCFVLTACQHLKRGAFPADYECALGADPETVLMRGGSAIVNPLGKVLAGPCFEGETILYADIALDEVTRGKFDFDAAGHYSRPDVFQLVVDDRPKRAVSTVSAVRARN

rRrNIT = target: T2, rRrNIT (Rhodococcus rhodochrous, UniProt Q02068); assay: specific activity, Bertholet ammonia assay; type: biochemical; conditions: 50 mM substrate, pH 7.5, 45 °C
T2 construct: synthetic gene expressed in E. coli BL21(DE3), purified
T2 sequence (Q02068 1-383): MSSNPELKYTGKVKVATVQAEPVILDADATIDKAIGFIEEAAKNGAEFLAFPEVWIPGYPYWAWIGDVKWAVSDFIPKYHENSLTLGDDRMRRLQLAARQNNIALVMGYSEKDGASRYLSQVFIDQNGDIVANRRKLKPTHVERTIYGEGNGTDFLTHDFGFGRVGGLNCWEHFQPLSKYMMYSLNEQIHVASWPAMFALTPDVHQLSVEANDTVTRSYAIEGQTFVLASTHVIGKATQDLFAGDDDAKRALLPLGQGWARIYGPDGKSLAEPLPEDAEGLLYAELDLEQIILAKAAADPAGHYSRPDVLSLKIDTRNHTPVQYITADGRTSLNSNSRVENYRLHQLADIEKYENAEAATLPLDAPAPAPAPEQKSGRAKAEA

| Compound | specific activity, Bertholet ammonia assay (rBdNIT) | specific activity, Bertholet ammonia assay (rRrNIT) |
| --- | --- | --- |
| C=CCC#N [3-butenenitrile] | rBdNIT from Bradyrhizobium diazoefficiens | rRrNIT from Rhodococcus rhodochrous |
| C=CCCC#N [4-pentenenitrile] | rBdNIT from Bradyrhizobium diazoefficiens | rRrNIT from Rhodococcus rhodochrous |
